By IC50 is commonly meant the point on the concentration scale where inhibition reaches its midpoint.

The record followed here is patent US11090304B2 (Amgen Inc., priority 2018, dated 2021).

Experiment [1] deals with Phosphorylation of ERK1/2 in MIA PaCa-2 cells. In words: Phospho-ERK1/2 MSD assay in MIA PaCa-2 cells. Format: cell-based. The essentials:
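Following a 2 or 4 h incubation with titrated compound, cells receive a 10 min pulse of 10 ng/mL EGF. Phospho-ERK1/2 in RIPA lysates is then quantified by MSD immunoassay, and IC50 values come from a four-parameter logistic model.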

The target of experiment [2] is GDP-bound KRAS protein (aa 1-169), containing both G12C and C118A amino acid substitutions (Homo sapiens, UniProt P01116, C118A/G12C). The experiment in a line: Coupled nucleotide exchange assay (SOS-mediated, AlphaScreen). The class given is biochemical. The conditions noted are these: for Coupled exchange IC50 (5 min): 5 min compound pre-incubation. Background: In Alpha technology, singlet oxygen from a donor bead excites a nearby acceptor bead.
Chain of GDP-bound KRAS protein (aa 1-169), containing both G12C and C118A amino acid substitutions (P01116 1-169 isoform P01116-2 G12C/C118A): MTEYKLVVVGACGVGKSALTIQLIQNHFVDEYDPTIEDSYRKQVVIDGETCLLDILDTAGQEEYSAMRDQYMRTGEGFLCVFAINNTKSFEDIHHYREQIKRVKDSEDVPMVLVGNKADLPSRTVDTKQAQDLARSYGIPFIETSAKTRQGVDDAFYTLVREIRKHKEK

Setting [3] is: read-out: p-ERK IC50 (2 h; MIA PaCa-2), 2 h compound treatment.
The mark [4] stands for this setting: Homo sapiens, MIA PaCa-2, 2 h, read-out: p-ERK IC50 (2 h; MIA PaCa-2), 2 h compound treatment.

Molecules are shown by their SMILES. Read-outs that look alike come from different tables or passages of the source.

`C=CC(=O)N1CCN(c2nc(=O)n(-c3c(C)cc(CN(C)C)cc3C(C)C)c3nc(-c4ccccc4F)c(Cl)cc23)[C@@H](C)C1` (single isomer, unassigned) [Example 80-1-1]: the IC50 in experiment [1] (setting [3]) was found to be 29 nM. Moreover, the “Coupled exchange IC50 (5 min)” value in experiment [2] is 0.044 | nda μM.

As to `C=CC(=O)N1CCN(c2nc(=O)n(-c3c(C)cc(CN(C)C)cc3C(C)C)c3nc(-c4ccccc4F)c(Cl)cc23)[C@@H](C)C1` (single isomer, unassigned) [Example 80-1-2], in experiment [1] (setting [3]), the IC50 was 236 nM. Further, the “Coupled exchange IC50 (5 min)” value in experiment [2] is on record as 0.556 | nda μM.

Take `C=CC(=O)N1CCN(c2nc(=O)n(-c3c(C)cc(CO)cc3C(C)C)c3nc(-c4ccccc4F)c(Cl)cc23)[C@@H](C)C1` (single isomer, unassigned) [Example 80-2-2]: the IC50 in experiment [1] (setting [4]) stood at 47 nM. Also, the “Coupled exchange IC50 (5 min)” value in experiment [2] was 0.048 | nda μM.

In the case of `C=CC(=O)N1CCN(c2nc(=O)n(-c3c(C)ccnc3C(C)C)c3nc(-c4c(F)ccc5[nH]ncc45)c(Cl)cc23)[C@@H](C)C1` (single isomer, unassigned) [Example 82-2], the IC50 in experiment [1] (setting [4]) is 239 nM. The “Coupled exchange IC50 (5 min)” value in experiment [2] is 0.096 | nda μM.

For the compound `C=CC(=O)N1CCN(c2nc(=O)n(-c3c(C(C)C)ncc(O)c3C)c3nc(-c4ccccc4F)c(Cl)cc23)[C@@H](C)C1` (single isomer, unassigned) [Example 83-2], the half-inhibitory concentration (IC50) in experiment [1] (setting [4]) turned out to be 84 nM. Besides, the “Coupled exchange IC50 (5 min)” value in experiment [2] was 0.035 | nda μM.

Turning to `C=CC(=O)N1CCN(c2nc(=O)n(-c3c(CO)ccnc3C(C)C)c3nc(-c4ccccc4F)c(Cl)cc23)[C@@H](C)C1` (single isomer, unassigned) [Example 84-2], the IC50 in experiment [1] (setting [4]) is 43 nM. The “Coupled exchange IC50 (5 min)” value in experiment [2] was 0.058 | nda μM.

On to `C=CC(=O)N1CCN(c2nc(=O)n(-c3ccccc3C(C)C)c3c(C)c(-c4c(O)cccc4F)c(Cl)cc23)[C@@H](C)C1` (single isomer, unassigned) [Example 90-2], for which the IC50 in experiment [1] (read-out: p-ERK IC50 (4 h; MIA PaCa-2), 4 h compound treatment) is 111 nM. Further, the “Coupled exchange IC50 (5 min)” value in experiment [2] was 0.151 µM. In addition, the “Coupled exchange IC50 (2 h)” value in experiment [2] (2 h compound pre-incubation) stood at 175 nM.

Take `C=CC(=O)N1CCN(c2nc(=O)n(-c3ccccc3C(C)C)c3nc(-c4c(F)cccc4C#N)c(Cl)cc23)[C@@H](C)C1` (single isomer, unassigned) [Example 98-1]: the IC50 in experiment [1] (setting [4]) amounted to 155 nM. Also, in experiment [2], the “Coupled exchange IC50 (5 min)” value was 0.193 | nda μM.

For `C=CC(=O)N1CCN(c2nc(=O)n(-c3c(C)cccc3C(C)C)c3nc(-c4ccccc4F)c(C)cc23)[C@@H](C)C1` (single isomer, unassigned) [Example 102-2], the IC50 in experiment [1] (setting [4]) was 211 nM. Further, the “Coupled exchange IC50 (5 min)” value in experiment [2] is 0.182 | nda μM.

For the compound `C=CC(=O)N1CCN(c2nc(=O)n(-c3ccccc3C(C)C)c3cc(-c4ccccc4F)c(Cl)nc23)[C@@H](C)C1` (single isomer, unassigned) [Example 110-2], the IC50 in experiment [1] (setting [4]) turned out to be 247 nM. Also, the “Coupled exchange IC50 (5 min)” value in experiment [2] is recorded as 0.071 | nda μM.

`C=CC(=O)N1CCN(c2nc(=O)n(-c3c(C(C)C)ncnc3N(C)C)c3nc(-c4ccccc4F)c(Cl)cc23)[C@@H](C)C1` (single isomer, unassigned) [Example 140-1]: the concentration for half-maximal inhibition (IC50) in experiment [1] (setting [4]) turned out to be 47 nM. In addition, the “Coupled exchange IC50 (5 min)” value in experiment [2] is given as 0.073 | nda μM.

Turning to `C=CC(=O)N1CCN(c2nc(=O)n(-c3c(C(N)=O)cccc3C(C)C)c3nc(-c4ccccc4F)c(Cl)cc23)[C@@H](C)C1` (single isomer, unassigned) [Example 142-2], in experiment [1] (setting [4]), the IC50 was determined as 29 nM. The “Coupled exchange IC50 (5 min)” value in experiment [2] is on record as 0.029 | nda μM.

Take `C=CC(=O)N1CCN(c2nc(=O)n(-c3c(C)ccnc3C(C)C)c3nc(-c4ccccc4F)c(C)nc23)[C@@H](C)C1` (single isomer, unassigned) [Example 143-1]: the IC50 in experiment [1] (setting [3]) was determined as 3540 nM. For the same compound, in experiment [2], the “Coupled exchange IC50 (5 min)” value is 2.72 | nda μM.

Regarding `C=CC(=O)N1CCN(c2nc(=O)n(-c3c(C)ccnc3C(C)C)c3nc(-c4ccccc4F)c(C)nc23)[C@@H](C)C1` (single isomer, unassigned) [Example 143-2], the IC50 in experiment [1] (setting [3]) worked out at 397 nM. Further, the “Coupled exchange IC50 (5 min)” value in experiment [2] is recorded as 2.43 | nda μM.

Consider `C=CC(=O)N1CCN(c2nc(=O)n(-c3c(N)cccc3C(C)C)c3nc(-c4ccccc4F)c(Cl)cc23)[C@@H](C)C1` (single isomer, unassigned) [Example 155-1], for which the IC50 in experiment [1] (setting [4]) was found to be 43 nM. Moreover, the “Coupled exchange IC50 (5 min)” value in experiment [2] is listed as 0.038 | nda μM.

Turning to `C=CC(=O)N1CCN(c2nc(=O)n(-c3c(C)cccc3C(C)C)c3nc(-c4c(C)ccc5[nH]ncc45)c(F)cc23)[C@@H](C)C1` [68-2, 6-fluoro-7-(5-methyl-1H-indazol-4-yl)-1-(2-methyl-6-(2-propanyl)phenyl)-4-((2S)-2-methyl-4-(2-propenoyl)-1-piperazinyl)pyrido[2,3-d]pyrimidin-2(1H)-one], the IC50 in experiment [1] (setting [4]) worked out at 999 nM. Besides, the “Coupled exchange IC50 (5 min)” value in experiment [2] is 0.947 | nda μM.

In the case of `C=CC(=O)N1CCN(c2nc(=O)n(-c3c(C)cc(CO)cc3C(C)C)c3nc(-c4ccccc4F)c(Cl)cc23)[C@@H](C)C1` [80-2, 6-chloro-7-(2-fluorophenyl)-1-(4-(hydroxymethyl)-2-methyl-6-(2-propanyl)phenyl)-4-((2S)-2-methyl-4-(2-propenoyl)-1-piperazinyl) pyrido[2,3-d] pyrimidin-2(1H)-one], the IC50 in experiment [1] (setting [4]) was determined as 97 nM. Besides, the “Coupled exchange IC50 (5 min)” value in experiment [2] is recorded as 0.11 | nda μM.

In the case of `C=CC(=O)N1CCN(c2nc(=O)n(-c3ncccc3CC)c3nc(-c4ccccc4F)c(Cl)cc23)[C@@H](C)C1` [Example 54-15, 6-chloro-1-(3-ethyl-2~ pyridinyl)-7-(2-fluorophenyl)-4-((2S)-2-methyl-4-(2-propenoyl)-1-piperazinyl) pyrido[2,3-d]pyrimidin-2(1H)-one], the concentration for half-maximal inhibition (IC50) in experiment [1] (setting [4]) is 347 nM. For the same compound, in experiment [2], the “Coupled exchange IC50 (5 min)” value was 0.564 | nda μM.

As for `C=CC(=O)N1CCN(c2nc(=O)n(-c3ncccc3CC)c3nc(-c4c(O)cccc4F)c(Cl)cc23)[C@@H](C)C1` [Example 54-16, 6-chloro-1-(3-ethyl-2-pyridinyl)-7-(2-fluoro-6-hydroxyphenyl)-4-((2S)-2-methyl-4-(2-propenoyl)-1-piperazinyl) pyrido[2,3-d]pyrimidin-2(1H)-one], in experiment [1] (setting [4]), the IC50 is 149 nM. Also, the “Coupled exchange IC50 (5 min)” value in experiment [2] is 0.149 | nda μM.

With `C=CC(=O)N1CCN(c2nc(=O)n(-c3c(C(C)C)ccnc3C)c3nc(-c4ccccc4F)c(Cl)cc23)[C@@H](C)C1` [Example 54-18, 6-chloro-7-(2-fluorophenyl)-1-(2-methyl-4-(2-propanyl)-3-pyridinyl)-4-((2S)-2-methyl-4-(2-propenoyl)-1-piperazinyl) pyrido[2,3-d]pyrimidin-2(1H)-one], the concentration for half-maximal inhibition (IC50) in experiment [1] (setting [4]) is 81 nM. For the same compound, the “Coupled exchange IC50 (5 min)” value in experiment [2] was 0.087 | nda μM.

On to `C=CC(=O)N1CCN(c2nc(=O)n(-c3nccnc3C(C)C)c3nc(-c4c(O)cccc4F)c(Cl)cc23)[C@@H](C)C1` [Example 54-21, 6-chloro-7-(2-fluoro-6-hydroxyphenyl)-4-((2S)-2-methyl-4-(2-propenoyl)-1-piperazinyl)-1-(3-(2-propanyl)-2-pyrazinyl) pyrido[2,3-d]pyrimidin-2(1H)-one], for which, in experiment [1] (setting [4]), the IC50 is 2480 nM. The “Coupled exchange IC50 (5 min)” value in experiment [2] was 1.67 | nda μM.
